# Reference: US10722446B2, “Aqueous oral care compositions” (Colgate-Palmolive Company, priority 2011, dated 2020)
# Test: Rheological properties (stress controlled AR2000ex rheometer, flow curve and strain sweep)
# Assay type: physicochemical
# Text: The three commercial mouthwashes are a simple fluoride-rinse type mouthwash (comparative formulation 1), a polymer based high fluoride mouthwash (comparative formulation 2), and a mouthwash having a conventional polymer system different from that described in this case (mouthwash 3). The rheological properties of the formulations are quantified using a stress controlled AR2000ex rheometer (TA Instruments) and a cuette type geometry. A flow curve is generated and fit to a power law model to quantify the flow rate index, n. A strain sweep is conducted to quantify the elastic modulus, G′ and the loss modulus, G″.
# [1] = flow curve fit to a power law model
# [2] = strain sweep, cuette type geometry
structure (smiles),measurement,setting,value
"O [Newtonian Fluid Example, Water]",k,[1],1.1 cps
same,n (flow rate index),[1],1.0
same,G′/G″,ratio of elastic to viscous components,0.09
same,G′ (elastic modulus),[2],0.02 dyn/cm2
same,G″ (loss modulus),[2],0.23 dyn/cm2
